Measured values published in patent publication US20200121677A1, “SUBSTITUTED 6,7-DIHYDROPYRAZOLO[1,5-a]PYRAZINES AS NEGATIVE ALLOSTERIC MODULATORS OF MGLUR2 RECEPTORS” (Janssen Pharmaceutica NV, priority 2014, published 2020).
Where two headings read alike, the source gives them in different places.

Assays:
[1] = tested on: rats; test: Reversal of the effect of the mGluR2 PAM JNJ-42153605-induced inhibition of scopolamine-induced hyperlocomotion; type: in vivo, rat
Method: 2) Reversal of the Effect of the mGluR2 PAM JNJ-42153605-Induced Inhibition of Scopolamine-Induced Hyperlocomotion
Motor activity was measured in microprocessor-based motor activity arenas (closed gray PVC cylinders with a height of 39 cm and a diameter of 31 cm). Each arena was placed on an infrared LED (8×8 LEDs) lit box (white PVC squared box; 40×40 cm^2; height 12.5 cm. An infrared-sensitive tube camera and a white light source were mounted to the ceiling above the observation chamber to track the animal. The total distance traveled (cm) was recorded and analyzed using the Noldus Ethovision XT Video Tracking System (Version 7.0.418; Noldus, Wageningen, The Netherlands). The intensity of the light within the activity cages (measured in the centre at the level of the floor) ranged between 4 and 8 LUX.
The rats were pretreated with test compound or vehicle at 60 min before the start of the activity recordings and placed into individual cages. The rats were challenged with JNJ-42153605 (3-(cyclopropylmethyl)-7-(4-phenylpiperidin-1-yl)-8-(trifluoromethyl)[1,2,4]triazolo[4,3-a]pyridine; WO2010/130424; Cid et al. J. Med. Chem. 2012, 55, 8770-8789) (20 mg/kg, i.v.) 30 min before the start of the activity recording combined with scopolamine (0.16 mg/kg, i.v.) just before the start of the activity measurements. Immediately after the injection of scopolamine, the rats were placed into the activity monitors and total distance traveled over the first 30 min was measured.
For reversal of the inhibitory effect of JNJ-42153605 on the scopolamine-induced hyperlocomotion, the following all-or-none criteria were adopted: (1) reversal: total distance >1500 cm.

[2] = biological target: human mGlu2 receptor (Homo sapiens, UniProt Q14416); test: [35S]GTPγS binding assay, mGluR2 negative allosteric modulation (membranes from CHO cells transfected with human mGlu2 receptor, glutamate ~EC80 60 μM); settings: for GTPγS - hmGluR2 anGT pIC50: membranes with human mGlu2 receptor; for GTPγS - hmGluR2 anGT pIC50 / IC50: glutamate ~EC80 (60 μM), pIC50 = -log IC50 (M); for GTPγS - hmGluR2 anGT Emax: relative maximal effect: maximal % inhibition relative to the control glutamate response; for IC50: GTPγS - hmGluR2 anGT pIC50, membranes with human mGlu2 receptor;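 as to all read-outs here: membranes preincubated 30 min at 30 °C with compound plus glutamate, then [35S]GTPγS (0.1 nM) incorporation measured over another 30 min at 30 °C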
[3] = rats, route PO, criterion total distance >1500 cm
[4] = historical solvent-pretreated control rats, first 30 min, JNJ-42153605 20 mg/kg i.v., scopolamine 0.16 mg/kg i.v.
[5] = read-out: GTPγS - hmGluR2 anGT Emax, relative maximal effect: maximal % inhibition relative to the control glutamate response

Sequence of human mGlu2 receptor (Q14416 19-872): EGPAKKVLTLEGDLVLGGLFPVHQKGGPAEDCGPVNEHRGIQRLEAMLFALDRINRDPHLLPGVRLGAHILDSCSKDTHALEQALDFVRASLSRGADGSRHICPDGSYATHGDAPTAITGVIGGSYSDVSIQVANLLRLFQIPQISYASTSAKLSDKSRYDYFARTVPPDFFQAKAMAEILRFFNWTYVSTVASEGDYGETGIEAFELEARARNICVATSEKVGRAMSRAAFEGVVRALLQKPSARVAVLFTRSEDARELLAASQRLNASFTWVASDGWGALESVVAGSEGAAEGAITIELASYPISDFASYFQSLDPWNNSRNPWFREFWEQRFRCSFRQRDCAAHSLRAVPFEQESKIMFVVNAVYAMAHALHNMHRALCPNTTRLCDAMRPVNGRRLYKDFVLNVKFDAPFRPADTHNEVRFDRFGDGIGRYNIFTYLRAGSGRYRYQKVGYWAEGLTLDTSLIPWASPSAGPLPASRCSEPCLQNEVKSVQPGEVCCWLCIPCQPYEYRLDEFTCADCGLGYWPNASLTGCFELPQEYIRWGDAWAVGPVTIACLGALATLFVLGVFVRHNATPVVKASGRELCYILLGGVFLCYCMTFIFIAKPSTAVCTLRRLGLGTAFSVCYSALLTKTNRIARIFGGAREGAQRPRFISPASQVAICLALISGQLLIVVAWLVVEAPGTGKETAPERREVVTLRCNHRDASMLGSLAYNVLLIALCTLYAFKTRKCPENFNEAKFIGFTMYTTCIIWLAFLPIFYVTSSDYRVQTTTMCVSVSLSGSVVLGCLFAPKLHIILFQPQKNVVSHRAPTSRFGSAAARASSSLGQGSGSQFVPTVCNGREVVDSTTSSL

| Compound | GTPγS - hmGluR2 anGT pIC50 [2] | GTPγS - hmGluR2 anGT Emax [2] [%] | IC50 [2] [M] | Emax [2, 5] [%] | melting point [°C] | ED50 SCOP JNJ-42153605 (Reversal of the effect of JNJ 42153605 on scopolamine-induced hyperlocomotion) [1, 3] [mg/kg] | other results |
| --- | --- | --- | --- | --- | --- | --- | --- |
| CN1[C@@H]2C[C@@H](OC(=O)[C@H](CO)c3ccccc3)C[C@H]1[C@@H]1O[C@@H]12 [Scopolamine, scopolamine] | – | – | – | – | – | – | Total distance traveled >1500 cm (%) [1, 4]: 100%; Total distance traveled >4400 cm (%) [1, 4]: 95.8%; Total distance traveled, Median (cm) [1, 4]: 7246 cm |
| Cc1cncc(NC(=O)c2cnn3c2C(=O)N(c2ccc(Cl)c(Cl)c2)C[C@@H]3C)c1 [compound 28] | 9.06 | 107 | – | – | – | >0.63 | – |
| COc1cncc(NC(=O)c2cnn3c2C(=O)N(c2ccc(Cl)c(Cl)c2)C[C@@H]3C)c1 [compound 29] | 8.75 | 107 | – | – | – | >0.63 | – |
| COCc1cc(N2C[C@H](C)n3ncc(C(=O)Nc4ccnc(C)c4)c3C2=O)ccc1C(F)(F)F [compound 95] | – | – | 5.5e-09 | 112 | – | – | ED50 ([1]; Rattus norvegicus, rats, route PO, criterion total distance >1500 cm, read-out: ED50 SCOP JNJ-42153605 (Reversal of the effect of JNJ 42153605 on scopolamine-induced hyperlocomotion)): > 2.5 mg/kg |
| COc1cccc(NC(=O)c2cnn3c2C(=O)N(c2ccc(C(F)(F)F)cc2)C[C@@H]3C)n1 [compound 105] | 8.21 | 108 | – | – | – | >2.5 | – |
| C[C@H]1CN(c2ccc(C(F)(F)F)cc2)C(=O)c2c(C(=O)Nc3ncco3)cnn21 [compound 139] | – | – | 2.57e-08 | 109 | 204.9 | – | – |
| C[C@H]1CN(c2ccc(C(F)(F)F)cc2)C(=O)c2c(C(=O)Nc3ncc[nH]3)cnn21 [compound 142] | – | – | 2.14e-07 | 110 | 257.9 | – | – |
| COc1cc(N2C[C@H](C)n3ncc(C(=O)Nc4cc(C)nc(C)c4)c3C2=O)ccc1C(F)(F)F [compound 143] | – | – | 8.13e-09 | 116 | 201.6 | – | – |
| C[C@H]1CN(c2ccc(C(F)(F)F)cc2)C(=O)c2c(C(=O)Nc3cncc(F)n3)cnn21 [compound 145] | – | – | 1.23e-09 | 126 | 209.5 | – | – |
| C[C@H]1CN(c2ccc(Cl)c(Cl)c2)C(=O)c2c(C(=O)Nc3cncc(F)n3)cnn21 [compound 146] | – | – | 9.55e-10 | 128 | 172.9 | – | – |
| C[C@H]1CN(c2ccc(C(F)(F)F)cc2)C(=O)c2c(C(=O)Nc3ccc(S(=O)(=O)F)cc3)cnn21 [compound 167] | – | – | 4.27e-08 | – | 205.04 | – | Emax ([2]; read-out: GTPγS - hmGluR2 anGT Emax): 107% |

Further lines, with some results ahead:

| GTPγS - hmGluR2 anGT pIC50 [2] | GTPγS - hmGluR2 anGT Emax [2] [%] | IC50 [2] [M] | Emax [2, 5] [%] | melting point [°C] | Compound | ED50 SCOP JNJ-42153605 (Reversal of the effect of JNJ 42153605 on scopolamine-induced hyperlocomotion) [1, 3] [mg/kg] | other results |
| --- | --- | --- | --- | --- | --- | --- | --- |
| 8.31 | 113 | – | – | – | COCC1CN(c2ccc(C(F)(F)F)cc2)C(=O)c2c(C(=O)Nc3cnccn3)cnn21 (single isomer, unassigned) [compound 154] | 0.63 | – |
| 8.77 | 107 | – | – | – | COCC1CN(c2ccc(C(F)(F)F)c(Cl)c2)C(=O)c2c(C(=O)Nc3cccnc3)cnn21 (single isomer, unassigned) [compound 156] | 0.20 | – |
| 8.48 | 108 | – | – | – | COCC1CN(c2ccc(C(F)(F)F)cc2)C(=O)c2c(C(=O)Nc3cccnc3)cnn21 (single isomer, unassigned) [compound 158] | >0.63 | – |
| – | – | 1.86e-08 | 105 | 150.83 | C[C@H]1CN(c2ccc(C(F)(F)F)cc2)C(=O)c2c(C(=O)Nc3cncc(CO)c3)cnn21 [compound 148, (7S)—N-[5-(hydroxymethyl)pyridin-3-yl]-7-methyl-4-oxo-5-[4-(trifluoromethyl)phenyl]-4,5,6,7-tetrahydropyrazolo[1,5-a]pyrazine-3-carboxamide] | – | – |
| – | – | 8.13e-09 | 107 | 169.28 | C[C@H]1CN(c2ccc(C(F)(F)F)cc2)C(=O)c2c(C(=O)Nc3ccnc(CO)c3)cnn21 [compound 150] | – | – |
| – | – | 1.23e-07 | 111 | 229.9 | O=C(Nc1cccnc1)c1cnn2c1C(=O)N(c1ccc(C(F)(F)F)cc1)CC2 [compound 153] | – | – |
